Measurements from publication PMC11357100 (2024).

Assays:
Test in all cases: UV melting at 295 nm
[1] = test system: RET (DNA, G4) GGGGCGGGGCGGGGCGGGGT; details: 10 mM KCl, 90 mM LiCl; 10 mM Tris-HCl pH 7.2; 2 µM DNA, 3 equiv. ligand; Tm 75.30 ± 0.80 to 76.4 ± 1.2
[2] = test system: c-KIT1 (DNA, G4) AGGGAGGGCGCTGGGAGGAGGG; details: 10 mM KCl, 90 mM LiCl; 10 mM Tris-HCl pH 7.2; 2 µM DNA, 3 equiv. ligand; Tm 52.9 ± 1.0 to 54.40 ± 0.60
[3] = test system: catG4 (DNA, G4) TGGGTAGGGCGGGTTGGGAAA; details: 10 mM KCl, 90 mM LiCl; 10 mM Tris-HCl pH 7.2; 2 µM DNA, 3 equiv. ligand; Tm 63.30 ± 0.10 to 62.80 ± 0.30
[4] = test system: c-MYC (DNA, G4) TGAGGGTGGGTAGGGTGGGTAA; details: 10 mM KCl, 90 mM LiCl; 10 mM Tris-HCl pH 7.2; 2 µM DNA, 3 equiv. ligand; Tm 79.10 ± 0.10 to 80.6 ± 1.7

ΔTm [1]: 1.1 °C | ΔTm [2]: 1.5 °C | ΔTm [3]: -0.5 °C | ΔTm [4]: 1.5 °C
Structure (SMILES): COc1nc2c(N)ncnc2[n+]2ccccc12
